Key:
[1] = target: T1, Tyrosine-protein kinase BTK (Homo sapiens, UniProt Q06187); assay: Inhibition of full length N-terminal GST fusion tagged human BTK expressed in baculovirus expression system using FAM-P2 peptide solution as substrate incubated for 10 mins in presence of ATP by microplate reader assay
TMD8 [2] = assay: cells; conditions: Homo sapiens, TMD8, 72 h
TMD8 [3] = assay: cells; conditions: Homo sapiens, TMD8, 72 h; remark: listed apart in the source
[4] = target: T2, Protein cereblon/Tyrosine-protein kinase BTK (Homo sapiens, UniProt Q06187+Q96SW2); assay: Protac activity at BTK/CRBN in human JeKo-1 cells assessed as induction of BTK degradation at 100 nM measured after 1 hr by Western blot analysis relative to control; type: cell-based
Target sequence in this assay (Q06187 2-659 limits assumed): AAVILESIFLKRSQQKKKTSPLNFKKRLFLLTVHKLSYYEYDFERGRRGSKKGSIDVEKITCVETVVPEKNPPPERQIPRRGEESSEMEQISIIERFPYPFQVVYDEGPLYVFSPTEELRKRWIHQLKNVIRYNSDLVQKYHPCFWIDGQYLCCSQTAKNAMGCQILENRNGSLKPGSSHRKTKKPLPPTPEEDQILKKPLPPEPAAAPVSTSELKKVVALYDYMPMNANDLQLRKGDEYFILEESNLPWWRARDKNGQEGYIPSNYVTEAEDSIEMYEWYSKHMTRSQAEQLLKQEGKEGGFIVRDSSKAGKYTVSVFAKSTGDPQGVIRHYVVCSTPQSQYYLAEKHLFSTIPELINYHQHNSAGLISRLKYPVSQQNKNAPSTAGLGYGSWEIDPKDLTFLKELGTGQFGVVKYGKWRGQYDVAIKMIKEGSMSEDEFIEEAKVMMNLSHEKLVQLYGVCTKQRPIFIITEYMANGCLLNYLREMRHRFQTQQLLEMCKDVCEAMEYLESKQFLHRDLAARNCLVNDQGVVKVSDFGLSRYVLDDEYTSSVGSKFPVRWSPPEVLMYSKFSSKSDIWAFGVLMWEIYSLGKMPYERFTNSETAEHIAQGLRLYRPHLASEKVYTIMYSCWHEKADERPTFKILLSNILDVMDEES
Target sequence in this assay (Q96SW2 whole entry partner): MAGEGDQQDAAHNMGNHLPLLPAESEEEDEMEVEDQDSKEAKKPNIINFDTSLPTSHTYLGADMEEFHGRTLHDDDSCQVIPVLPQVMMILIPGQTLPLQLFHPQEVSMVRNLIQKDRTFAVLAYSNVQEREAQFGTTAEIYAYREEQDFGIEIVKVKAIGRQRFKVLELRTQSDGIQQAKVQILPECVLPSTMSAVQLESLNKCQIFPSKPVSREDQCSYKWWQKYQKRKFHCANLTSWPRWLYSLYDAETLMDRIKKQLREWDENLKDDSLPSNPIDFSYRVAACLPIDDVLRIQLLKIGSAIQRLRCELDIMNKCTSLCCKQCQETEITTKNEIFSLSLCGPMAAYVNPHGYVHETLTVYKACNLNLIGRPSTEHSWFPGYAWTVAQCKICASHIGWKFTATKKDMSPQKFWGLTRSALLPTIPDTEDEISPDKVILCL

[5] = target: T2, Protein cereblon/Tyrosine-protein kinase BTK; assay: Protac activity at BTK/CRBN in human JeKo-1 cells assessed as induction of BTK degradation measured after 1 hr by Western blot analysis; type: cell-based
Target sequence in this assay (Q06187 whole entry): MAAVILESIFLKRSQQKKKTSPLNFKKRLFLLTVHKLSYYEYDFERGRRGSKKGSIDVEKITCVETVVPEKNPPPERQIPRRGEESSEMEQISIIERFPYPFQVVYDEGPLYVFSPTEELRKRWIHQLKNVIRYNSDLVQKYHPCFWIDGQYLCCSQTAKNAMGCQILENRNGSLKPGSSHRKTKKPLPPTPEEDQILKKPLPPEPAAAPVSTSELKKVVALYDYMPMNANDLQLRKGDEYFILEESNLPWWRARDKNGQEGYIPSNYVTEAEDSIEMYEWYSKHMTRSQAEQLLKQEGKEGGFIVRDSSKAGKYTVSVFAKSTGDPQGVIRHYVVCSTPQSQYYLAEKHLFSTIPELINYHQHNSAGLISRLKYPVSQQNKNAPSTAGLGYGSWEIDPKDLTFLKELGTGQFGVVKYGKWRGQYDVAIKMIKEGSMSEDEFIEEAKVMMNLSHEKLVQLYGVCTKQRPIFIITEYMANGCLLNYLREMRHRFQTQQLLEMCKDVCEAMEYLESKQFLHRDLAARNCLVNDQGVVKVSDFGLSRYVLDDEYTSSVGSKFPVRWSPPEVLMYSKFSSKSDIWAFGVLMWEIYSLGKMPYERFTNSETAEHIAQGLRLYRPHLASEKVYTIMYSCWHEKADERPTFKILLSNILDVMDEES
Target sequence in this assay (Q96SW2 whole entry): as the sequence (Q96SW2 whole entry partner) above

[6] = target: T1, Tyrosine-protein kinase BTK; assay: Inhibition of full length N-terminal GST fusion tagged human BTK expressed in baculovirus expression system at 50 nM using FAM-P2 peptide solution as substrate incubated for 10 mins in presence of ATP by microplate reader assay relative to control
[7] = target: T1, Tyrosine-protein kinase BTK; assay: Inhibition of full length N-terminal GST fusion tagged human BTK expressed in baculovirus expression system at 500 nM using FAM-P2 peptide solution as substrate incubated for 10 mins in presence of ATP by microplate reader assay
[8] = target: Protein cereblon/Tyrosine-protein kinase BTK (Homo sapiens, UniProt Q06187+Q96SW2, C481S); assay: Protac activity at BTK C481S mutant/CRBN in human TMD8 cells assessed as induction of BTK degradation measured after 1 hr by Western blot analysis; type: cell-based
Chain of Protein cereblon/Tyrosine-protein kinase BTK (Homo sapiens, UniProt Q06187+Q96SW2, C481S) (Q06187 2-659 C481S limits assumed, stated change not applied): as the sequence (Q06187 2-659 limits assumed) above, with C480S counted along it
Chain of Protein cereblon/Tyrosine-protein kinase BTK (Homo sapiens, UniProt Q06187+Q96SW2, C481S) (Q96SW2 whole entry, stated change not applied): as the sequence (Q96SW2 whole entry partner) above

[9] = system: Protein cereblon/Tyrosine-protein kinase BTK (Homo sapiens), Q06187+Q96SW2 [C481S]; assay: Protac activity at BTK C481S mutant/CRBN in human TMD8 cells assessed as maximal BTK degradation measured after 1 hr by Western blot analysis relative to control; type: cell-based
[10] = target: T2, Protein cereblon/Tyrosine-protein kinase BTK; assay: Protac activity at BTK/CRBN in human JeKo-1 cells assessed as maximal BTK degradation measured after 1 hr by Western blot analysis relative to control; type: cell-based
Target sequence in this assay (Q06187 2-659 limits assumed): as the sequence (Q06187 2-659 limits assumed) above
Target sequence in this assay (Q96SW2 whole entry partner): as the sequence (Q96SW2 whole entry partner) above

[11] = Apparent permeability across basolateral to apical side in human Caco-2 cells; type: ADME, cell-based
[12] = Efflux ratio of apparent permeability from basolateral to apical side over apical to basolateral side in human Caco-2 cells; type: ADME, cell-based
[13] = Apparent permeability across apical to basolateral side in human Caco-2 cells; type: ADME, cell-based
[14] = Half life in human plasma; type: ADME, cell-free

T1 sequence (Q06187 whole entry, the tested form may be a part): as the sequence (Q06187 whole entry) above

SMILES	IC50 [1]	inhibition [6]	inhibition [7]	IC50 (TMD8 [2])	IC50 (TMD8 [3])	Activity [4]	DC50 [5]	DC50 [8]	%max [9]	%max [10]	Papp B→A [11]	efflux ratio [12]	Papp A→B [13]	half-life [14]
O=C(CNc1ncnc2[nH]cc(C(=O)c3ccc(Oc4ccccc4)cc3Cl)c12)NCCOCCOCCOCCOCCOCCOCCNc1cccc2c1C(=O)N(C1CCC(=O)NC1=O)C2=O (stereo not drawn)	1390 nM	10%	42.5%	750 nM	104 nM	78.7%	8.3 nM	52.3 nM	84.8%	92.4%				
O=C1CCC(N2C(=O)c3cccc(NCCOCCOCCOCCNC(=O)N[C@H]4CC[C@@H](Nc5ncnc6[nH]cc(C(=O)c7ccc(Oc8ccccc8)cc7Cl)c56)CC4)c3C2=O)C(=O)N1 (stereo partly drawn)	22.3 nM	73.5%	95.2%			44.1%	32.3 nM	30.1 nM	84.3%	76.9%				
O=C1CCC(N2C(=O)c3cccc(NCCOCCOCCOCCOCCOCCNC(=O)N[C@H]4CC[C@@H](Nc5ncnc6[nH]cc(C(=O)c7ccc(Oc8ccccc8)cc7Cl)c56)CC4)c3C2=O)C(=O)N1 (stereo partly drawn)	56.4 nM	58.4%	90%	254 nM	45.7 nM	93.7%	41.9 nM	42.9 nM	90.7%	93%	7.5 ×10⁻⁶ cm/s	> 1.4	< 5.3 ×10⁻⁶ cm/s	3.55 h
O=C(O)CNc1ncnc2[nH]cc(C(=O)c3ccc(Oc4ccccc4)cc3Cl)c12	81.4 nM	44.2%	85.1%											
O=C(CNc1ncnc2[nH]cc(C(=O)c3ccc(Oc4ccccc4)cc3Cl)c12)NCCOCCOCCOCCOCCOCCNc1cccc2c1C(=O)N(C1CCC(=O)NC1=O)C2=O (stereo not drawn)	1210 nM	5.9%	35.5%	1690 nM	63.3 nM	64.2%	8.1 nM	80.4 nM	88.4%	72.4%				5.34 h
O=C1CCC(N2C(=O)c3cccc(NCCOCCOCCOCCOCCNC(=O)N[C@H]4CC[C@@H](Nc5ncnc6[nH]cc(C(=O)c7ccc(Oc8ccccc8)cc7Cl)c56)CC4)c3C2=O)C(=O)N1 (stereo partly drawn)	46.9 nM	32.6%	74.9%	290 nM	39.5 nM	88.8%	12.1 nM	37.9 nM	83.5%	78%				
CCNC(=O)N[C@H]1CC[C@@H](Nc2ncnc3[nH]cc(C(=O)c4ccc(Oc5ccccc5)cc4Cl)c23)CC1	25.2 nM													
N[C@H]1CC[C@@H](Nc2ncnc3[nH]cc(C(=O)c4ccc(Oc5ccccc5)cc4Cl)c23)CC1	4.3 nM	94.2%	99.5%											
O=C(CNc1ncnc2[nH]cc(C(=O)c3ccc(Oc4ccccc4)cc3Cl)c12)NCCOCCOCCOCCOCCNc1cccc2c1C(=O)N(C1CCC(=O)NC1=O)C2=O (stereo not drawn)	2200 nM	5.6%	35.6%			55.6%	9.4 nM	52.7 nM	68.6%	66.5%				

The next lines start with results.

IC50 [1]	inhibition [6]	inhibition [7]	SMILES	IC50 (TMD8 [2])	IC50 (TMD8 [3])	Activity [4]	DC50 [5]	DC50 [8]	%max [9]	%max [10]	Papp B→A [11]	efflux ratio [12]	Papp A→B [13]	half-life [14]
	7%	39%	O=C(CNc1ncnc2[nH]cc(C(=O)c3ccc(Oc4ccccc4)cc3Cl)c12)NCCOCCOCCOCCOCCOCCOCCOCCNc1cccc2c1C(=O)N(C1CCC(=O)NC1=O)C2=O (stereo not drawn)			14.7%								
407 nM			CCNC(=O)CNc1ncnc2[nH]cc(C(=O)c3ccc(Oc4ccccc4)cc3Cl)c12											
3780 nM	7.5%	21.5%	O=C(CNc1ncnc2[nH]cc(C(=O)c3ccc(Oc4ccccc4)cc3Cl)c12)NCCOCCOCCNc1cccc2c1C(=O)N(C1CCC(=O)NC1=O)C2=O (stereo not drawn)			33%								
23 nM	75%	96.2%	O=C1CCC(N2C(=O)c3cccc(NCCCCNC(=O)N[C@H]4CC[C@@H](Nc5ncnc6[nH]cc(C(=O)c7ccc(Oc8ccccc8)cc7Cl)c56)CC4)c3C2=O)C(=O)N1 (stereo partly drawn)			6.8%								
	1.8%	9.3%	O=C(CNc1ncnc2[nH]cc(C(=O)c3ccc(Oc4ccccc4)cc3Cl)c12)NCCCCNc1cccc2c1C(=O)N(C1CCC(=O)NC1=O)C2=O (stereo not drawn)			24.9%								
15.5 nM	82.1%	97.4%	O=C1CCC(N2C(=O)c3cccc(NCCOCCOCCNC(=O)N[C@H]4CC[C@@H](Nc5ncnc6[nH]cc(C(=O)c7ccc(Oc8ccccc8)cc7Cl)c56)CC4)c3C2=O)C(=O)N1 (stereo partly drawn)			22.8%								
	2.4%	10.9%	O=C(CNc1ncnc2[nH]cc(C(=O)c3ccc(Oc4ccccc4)cc3Cl)c12)NCCNc1cccc2c1C(=O)N(C1CCC(=O)NC1=O)C2=O (stereo not drawn)											
1930 nM	8.6%	21.6%	O=C(CNc1ncnc2[nH]cc(C(=O)c3ccc(Oc4ccccc4)cc3Cl)c12)NCCOCCOCCOCCNc1cccc2c1C(=O)N(C1CCC(=O)NC1=O)C2=O (stereo not drawn)			56.2%	28.5 nM			67.1%				
5970 nM	4.9%	10.9%	CCOC(=O)CNc1ncnc2[nH]cc(C(=O)c3ccc(Oc4ccccc4)cc3Cl)c12											

Source: ChEMBL document CHEMBL5055646, “Discovery of novel BTK PROTACs for B-Cell lymphomas” (Eur J Med Chem, 2021)
